This is an account of results in paper PMC2231820 (The Journal of General Physiology, 2000).

The target in assay [1] is T1, rat olfactory (Rolf) CNG channel, α homomultimer (Rattus norvegicus, UniProt Q00195).
T1 sequence (Q00195 1-664): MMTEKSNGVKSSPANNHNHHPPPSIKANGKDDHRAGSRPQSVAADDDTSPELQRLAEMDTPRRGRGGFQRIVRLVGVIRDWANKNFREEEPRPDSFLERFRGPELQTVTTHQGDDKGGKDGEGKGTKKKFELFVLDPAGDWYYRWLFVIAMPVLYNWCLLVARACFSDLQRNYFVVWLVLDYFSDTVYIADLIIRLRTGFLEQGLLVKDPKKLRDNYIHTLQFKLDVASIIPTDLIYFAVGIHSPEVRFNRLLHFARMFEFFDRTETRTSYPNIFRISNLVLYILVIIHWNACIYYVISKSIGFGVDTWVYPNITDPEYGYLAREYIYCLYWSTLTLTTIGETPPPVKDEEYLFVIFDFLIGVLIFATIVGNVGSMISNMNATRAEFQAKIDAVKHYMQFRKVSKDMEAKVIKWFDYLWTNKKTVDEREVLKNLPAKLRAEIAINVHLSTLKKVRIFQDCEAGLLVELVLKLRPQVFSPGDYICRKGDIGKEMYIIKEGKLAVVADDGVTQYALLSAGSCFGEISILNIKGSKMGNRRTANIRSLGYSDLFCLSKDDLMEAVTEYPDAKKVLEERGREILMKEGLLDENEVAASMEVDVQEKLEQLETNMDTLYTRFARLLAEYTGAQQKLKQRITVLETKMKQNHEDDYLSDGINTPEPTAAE
Format: cell-based. The note with it: for Hill coefficient n of cGMP activation: six patches.

Assay [2] concerns the target T2, mouse olfactory (Molf) CNG channel, α homomultimer (Mus musculus, UniProt Q62398, M2V).
T2 sequence (Q62398 1-664 M2V): T1 sequence (Q00195 1-664) with M2V, P50S, Q69R, V77I, D115G, G118D, V297A, D611E, T661A, A662V
Format: cell-based.

The target in assay [3] is T3, bovine rod (Brod) CNG channel, α homomultimer (Bos taurus, UniProt Q00194).
T3 sequence (Q00194 1-690): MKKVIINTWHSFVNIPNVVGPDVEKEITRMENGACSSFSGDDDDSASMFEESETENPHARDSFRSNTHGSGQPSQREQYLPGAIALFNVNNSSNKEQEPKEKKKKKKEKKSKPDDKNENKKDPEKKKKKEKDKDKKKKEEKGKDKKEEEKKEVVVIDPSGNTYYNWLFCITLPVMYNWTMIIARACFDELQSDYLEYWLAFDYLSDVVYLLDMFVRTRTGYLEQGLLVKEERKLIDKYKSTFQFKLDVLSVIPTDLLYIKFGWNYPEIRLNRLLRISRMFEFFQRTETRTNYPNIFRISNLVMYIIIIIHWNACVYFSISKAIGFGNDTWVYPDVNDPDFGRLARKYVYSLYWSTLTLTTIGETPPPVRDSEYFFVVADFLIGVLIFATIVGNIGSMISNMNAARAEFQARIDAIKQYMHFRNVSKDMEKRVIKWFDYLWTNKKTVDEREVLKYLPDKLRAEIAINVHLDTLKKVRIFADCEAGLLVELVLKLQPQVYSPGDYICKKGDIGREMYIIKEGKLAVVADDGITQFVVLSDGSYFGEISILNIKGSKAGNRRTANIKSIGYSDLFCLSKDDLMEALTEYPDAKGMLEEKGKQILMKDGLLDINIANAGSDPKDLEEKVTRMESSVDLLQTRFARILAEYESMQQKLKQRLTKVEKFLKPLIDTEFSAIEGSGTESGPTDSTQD
The note with it: saturating 2 mM cGMP, ref Crary et al. 2000; cited from earlier work.

Assay [4] has as its target T1, rat olfactory (Rolf) CNG channel, α homomultimer. The settings on record: saturating 100 μM cGMP, ref Crary et al. 2000; cited from earlier work.
The target in assay [5] is T4, Rolf G204D CNG channel (Rattus norvegicus, UniProt Q00195, G204D).
T4 sequence (Q00195 1-664 G204D): T1 sequence (Q00195 1-664) with G204D
Format: cell-based.

Setting [6] is: read-out: Percent inhibition by tetracaine.

Positions count from the first letter of the chain named. Like-named read-outs stand apart in the source and are kept apart here.

As for diacylglycerol [DAG], the “decrease of maximal current by DAG” value in assay [1] (Rolf, 1.5 μM DAG, saturating 100 μM cGMP) is on record as 14%. Moreover, the “inhibition of cGMP-activated current by DAG (in words)” value is listed as “only partial inhibition” in assay [1] (Rolf, 12 μM DAG, saturating cGMP) and “only partial inhibition” in assay [2] (Molf, 12 μM DAG, saturating cGMP). Besides, the “DAG maximal percent inhibition (INmax)” value is 17% in assay [2] (Molf, saturating 100 μM cGMP); 100% in assay [3]; 31% in assay [4]. Moreover, the “Hill coefficient n of DAG inhibition” value is listed as 0.8 in assay [2] (Molf, saturating 100 μM cGMP) and 1.7 in assay [3].
On to `CCCCNc1ccc(C(=O)OCCN(C)C)cc1` [Tetracaine, tetracaine], for which the IC50 worked out at 140 µM in assay [1] and 10.8 µM in assay [5]. Moreover, the inhibition at 40 µM is 10.4% in assay [1] (setting [6]) and 18.8% in assay [2] (setting [6]).
As for `Nc1nc2c(ncn2[C@@H]2O[C@@H]3COP(=O)(O)O[C@H]3[C@H]2O)c(=O)[nH]1` [cGMP], the “Hill coefficient n of cGMP activation” value in assay [1] (Rolf, +100 mV) came to 2.8; in assay [1] (Rolf, −100 mV), 2.8. Moreover, in assay [2] (Molf, 1 μM cGMP, +100 mV), the “I/Imax of cGMP-activated current” value was determined as 0.15.
